This is an account of results in patent US20230128889A1, “REL/RELA/SPOT SMALL MOLECULES MODULATORS AND SCREENING METHODS” (priority 2020, published 2023).

Common to all, as to type: binding, T. thermophilus
One test concerns the target RelTt^NTD (Thermus thermophilus, UniProt Q5SHL3). Kind of test: Isothermal Titration Calorimetry (ITC), titration into RelTt^NTD. The method, then:
(§1) To directly address the sequential binding hypothesis, we monitored the binding of these nucleotides using Isothermal Titration Calorimetry (ITC). […] However, once the RelTt^NTD-GDP complex is formed, APCPP binds with an affinity of around 50 μM (FIG. 9h and Table 6). The incorporation of both GDP and APCPP is entropically driven (FIG. 11b and Table 6). In the case of the binding of GDP to the SYN-domain, the release of ordered water molecules from the GDP binding cleft is accompanied by the movement of α6-α7 that partially occludes the HD active center and an increase in the enzyme flexibility as observed in the crystal structure. All these structural changes are consistent with entropically driven binding events. […] In addition, it creates an ‘entropy reservoir’ that drives the binding of APCPP with the release of water molecules from the now exposed binding cleft. This supports the notion that GDP must ‘open’ the enzyme to reveal the ATP binding site, as predicted from the analysis of the crystallographic data.
(Isothermal titration calorimetry measures the heat released or taken up as one component is titrated into another.)

Another test has as its target RelTt^NTD-GDP complex (Thermus thermophilus, UniProt Q5SHL3). The test can be described thus: ITC, titration into RelTt^NTD-GDP complex. The procedure:
as §1

The target in a further test is RelTt^NTD-APCPP complex (Thermus thermophilus, UniProt Q5SHL3). The test can be described thus: ITC, titration into RelTt^NTD-APCPP complex. The method, then: as §1

Read-outs that look alike come from different tables or passages of the source.

As usually defined, the Kd is the constant that tells how readily two partners part at equilibrium.

Chain of RelTt^NTD-APCPP complex (Q5SHL3 entry or part of it, one chain of several): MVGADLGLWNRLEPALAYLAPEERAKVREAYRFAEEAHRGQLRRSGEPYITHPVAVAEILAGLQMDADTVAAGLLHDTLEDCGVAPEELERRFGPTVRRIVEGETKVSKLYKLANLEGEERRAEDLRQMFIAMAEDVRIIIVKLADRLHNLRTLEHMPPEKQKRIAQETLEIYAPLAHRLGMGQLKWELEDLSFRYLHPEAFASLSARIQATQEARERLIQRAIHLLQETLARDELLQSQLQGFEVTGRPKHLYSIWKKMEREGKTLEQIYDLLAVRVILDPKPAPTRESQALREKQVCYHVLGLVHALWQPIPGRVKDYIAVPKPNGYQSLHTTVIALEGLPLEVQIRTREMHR
Chain of RelTt^NTD (Q5SHL3 entry or part of it): as the sequence (Q5SHL3 entry or part of it, one chain of several) above
Chain of RelTt^NTD-GDP complex (Q5SHL3 entry or part of it, one chain of several): as above

`Nc1ncnc2c1ncn2[C@@H]1O[C@H](COP(=O)(O)CP(=O)(O)OP(=O)(O)O)[C@@H](O)[C@H]1O` [APCPP]: the Kd entry on RelTt^NTD is on record as “does not bind”. Also, at RelTt^NTD-GDP complex, the affinity, expressed as Kd, was 50.4 µM; the ΔG was -5.67 ± 0.07 kcal/mol; the ΔH was determined as 1.8 ± 1 kcal/mol; the “−TΔS” value was -7.5 ± 1 kcal/mol.
As for `Nc1nc2c(ncn2[C@@H]2O[C@H](COP(=O)(O)OP(=O)(O)O)[C@@H](O)[C@H]2O)c(=O)[nH]1` [GDP], on RelTt^NTD-APCPP complex, binding was characterised by a dissociation constant (Kd) of 24.7 ± 0.9 µM, the ΔG was -6.1 ± 0.1 kcal/mol, the ΔH is 0.4 ± 1 kcal/mol and the “−TΔS” value is -6.5 ± 1 kcal/mol. Moreover, on RelTt^NTD, the ΔG was -6.12 ± 0.01 kcal/mol, the ΔH stood at 1.3 ± 1 kcal/mol and the “−TΔS” value was -7.6 ± 1 kcal/mol. The Kd at RelTt^NTD (read-out: Kd) is 23 µM.
